Molecules are shown by their SMILES.

In the first experiment the target is T1, HIV-integrase (Human immunodeficiency virus type 1 group M subtype B, UniProt P04585).
T1 construct: Recombinant integrase (0.26 ng) was incubated with the beads
Briefly: in-vitro activity against HIV-integrase (HIV Integrase Inhibition, SPA bead assay). The note with it: Table 1; recombinant integrase, activity class. The experiment is classed as biochemical. The method in brief: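 Recombinant integrase (0.26 ng) pre-bound for 90 min at 37 °C to biotinylated substrate DNA on streptavidin SPA beads, then washed. Inhibitors added with 33P-labelled target DNA; reaction stopped with 10 mM EDTA. Scintillation CPM taken as integration signal.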
Take `O=C(NCc1ccc(F)cc1N1CCCCS1(=O)=O)c1nc2n(c(=O)c1O)CCOC21CCCC1` [Example 34, N-[[4-fluoro-2-(tetrahydro-1,1-dioxido-2H-1,2-thiazin-2-yl)phenyl]methyl]-6′,7′-dihydro-3′-hydroxy-4′-oxo-spiro[cyclopentane-1,9′(4′H)-pyrimido[2,1-c][1,4]oxazine]-2′-carboxamide]: the IC50 lay within 1 to 10 nM.
With `CSc1cc(F)ccc1CNC(=O)c1nc2n(c(=O)c1O)CCOC21CCCC1` [Example 18, N-[[4-fluoro-2-(methylthio)phenyl]methyl]-6′,7′-dihydro-3′-hydroxy-4′-oxo-spiro[cyclopentane-1,9′(4′H)-pyrimido[2,1-c][1,4]oxazine]-2′-carboxamide], the IC50 lay within 1 to 10 nM.
Same read-out and setting: the same measure for `O=C(NCc1ccccc1N1CCCCS1(=O)=O)c1nc2n(c(=O)c1O)CCCC21CCC1` [Example 83, 7′,8′-dihydro-3′-hydroxy-4′-oxo-N-[[2-(tetrahydro-1,1-dioxido-2H-1,2-thiazin-2-yl)phenyl]methyl]-spiro[cyclobutane-1,9′(6′H)-[4H]pyrido[1,2-α]pyrimidine]-2′-carboxamide]: 10 to 100 nM; for `CN(C)S(=O)(=O)c1cc(F)ccc1CNC(=O)c1nc2n(c(=O)c1O)CCOC21CCC1` [Example 54, N-[[2-[(dimethylamino)sulfonyl]-4-fluorophenyl]methyl]-6′,7′-dihydro-3′-hydroxy-4′-oxo-spiro[cyclobutane-1,9′(4′H)-pyrimido[2,1-c][1,4]oxazine]-2′-carboxamide]: 1 to 10 nM; for `O=C(NCc1ccc(F)cc1N1CCCCS1(=O)=O)c1nc2n(c(=O)c1O)CCOC21CCC1` [Example 55, N-[[4-fluoro-2-(tetrahydro-1,1-dioxido-2H-1,2-thiazin-2-yl)phenyl]methyl]-6′,7′-dihydro-3′-hydroxy-4′-oxo-spiro[cyclobutane-1,9′(4′H)-pyrimido[2,1-c][1,4]oxazine]-2′-carboxamide]: 1 to 10 nM.
Same read-out and setting: the same measure for `O=C(NCc1ccc(F)cc1)c1nc2n(c(=O)c1O)CCOC21CCNCC1` [Example 88, N-[(4-fluorophenyl)methyl]-6′,7′-dihydro-3′-hydroxy-4′-oxo-spiro[piperidine-4,9′(4′H)-pyrimido[2,1-c][1,4]oxazine]-2′-carboxamide]: 10 to 100 nM.
`O=C(NCc1ccc(F)cc1)c1nc2n(c(=O)c1O)CCOC21CCOCC1` [Example 40, N-[(4-fluorophenyl)methyl]-2,3,5,6,6′,7′-hexahydro-3′-hydroxy-4′-oxo-spiro[4H-pyran-4,9′(4′H)-pyrimido[2,1-c][1,4]oxazine]-2′-carboxamide]: the IC50 was 1 to 10 nM.
The same measure, in the same setting: to `O=C(NCc1ccc(F)cc1)c1nc2n(c(=O)c1O)CCOC21CCCC1` [Example 15, N-[(4-fluorophenyl)methyl]-6′,7′-dihydro-3′-hydroxy-4′-oxo-spiro[cyclopentane-1,9′(4′H)-pyrimido[2,1-c][1,4]oxazine]-2′-carboxamide] belongs 1 to 10 nM; to `CN(C)S(=O)(=O)c1cc(F)ccc1CNC(=O)c1nc2n(c(=O)c1O)CCC21CCCC1` [Example 86, N-[[2-[(dimethylamino)sulfonyl]-4-fluorophenyl]methyl]-6′,7′-dihydro-3′-hydroxy-4′-oxo-spiro[cyclopentane-1,8′(4′H)-pyrrolo[1,2-α]pyrimidine]-2′-carboxamide], 10 to 100 nM.
On the same count and under the same terms, the same measure for `CS(=O)(=O)c1cc(F)ccc1CNC(=O)c1nc2n(c(=O)c1O)CCOC21CCC1` [Example 53, N-[[4-fluoro-2-(methylsulfonyl)phenyl]methyl]-6′,7′-dihydro-3′-hydroxy-4′-oxo-spiro[cyclobutane-1,9′(4′H)-pyrimido[2,1-c][1,4]oxazine]-2′-carboxamide]: 1 to 10 nM; for `O=C(NCc1ccc(F)cc1)c1nc2n(c(=O)c1O)CCCC21CCCC1` [Example 1, N-[(4-fluorophenyl)methyl]-7′,8′-dihydro-3′-hydroxy-4′-oxo-spiro[cyclopentane-1,9′(6′H)-[4H]pyrido[1,2-a]pyrimidine]-2′-carboxamide]: 1 to 10 nM.
On the same count and under the same terms, the same measure for `CS(=O)(=O)c1cc(F)ccc1CNC(=O)c1nc2n(c(=O)c1O)CCOC21CCCC1` [Example 89, N-[[4-fluoro-2-(methylsulfonyl)phenyl]methyl]-6′,7′-dihydro-3′-hydroxy-4′-oxo-spiro[cyclopentane-1,9′(4′H)-pyrimido[2,1-c][1,4]oxazine]-2′-carboxamide]: 1 to 10 nM; for `O=C(NCc1ccccc1)c1nc2n(c(=O)c1O)CCOC21CCCC1` [Example 14, N-(phenylmethyl)-6′,7′-dihydro-3′-hydroxy-4′-oxo-spiro[cyclopentane-1,9′(4′H)-pyrimido[2,1-c][1,4]oxazine]-2′-carboxamide]: 1 to 10 nM; for `CN(C)S(=O)(=O)c1cc(F)ccc1CNC(=O)c1nc2n(c(=O)c1O)CCCC21CCCC1` [Example 10, N-[[2-[(dimethylamino)sulfonyl]-4-fluorophenyl]methyl]-7′,8′-dihydro-3′-hydroxy-4′-oxo-spiro[cyclopentane-1,9′(6′H)-[4H]pyrido[1,2-α]pyrimidine]-2′-carboxamide]: 1 to 10 nM.
As for `O=C(NCc1ccc(Cl)cc1)c1nc2n(c(=O)c1O)CCCC21CCC1` [Example 65, N-[(4-chlorophenyl)methyl]-7′,8′-dihydro-3′-hydroxy-4′-oxo-spiro[cyclobutane-1,9′(6′H)-[4H]pyrido[1,2-α]pyrimidine]-2′-carboxamide], the IC50 fell in the range of 1 to 10 nM.
Same read-out and setting: to `Cc1ccc(CNC(=O)c2nc3n(c(=O)c2O)CCOC32CCCC2)cc1C` [Example 22, N-[(3,4-dimethylphenyl)methyl]-6′,7′-dihydro-3′-hydroxy-4′-oxo-spiro[cyclopentane-1,9′(4′H)-pyrimido[2,1-c][1,4]oxazine]-2′-carboxamide] belongs 10 to 100 nM; to `O=C(NCc1ccccc1N1CCCCS1(=O)=O)c1nc2n(c(=O)c1O)CCOC21CCC1` [Example 56, N-[[2-(tetrahydro-1,1-dioxido-2H-1,2-thiazin-2-yl)phenyl]methyl]-6′,7′-dihydro-3′-hydroxy-4′-oxo-spiro[cyclobutane-1,9′(4′H)-pyrimido[2,1-c][1,4]oxazine]-2′-carboxamide], 10 to 100 nM.

Still in this experiment, the particulars now being: Table 1a; recombinant integrase, activity class.
On to `CS(=O)(=O)c1cc(F)ccc1CNC(=O)c1nc2n(c(=O)c1O)CCOC21COC1` [Example 111, Spiro[oxetane-3,9′(4′H)-pyrimido[2,1-c][1,4]oxazine]-2′-carboxamide, N-[[4-fluoro-2-(methylsulfonyl)phenyl]methyl]-6′,7′-dihydro-3′-hydroxy-4′-oxo-], for which the IC50 lay within 10 to 100 nM.
On the same count and under the same terms, to `Cc1ncn(-c2cc(F)ccc2CNC(=O)c2nc3n(c(=O)c2O)CCOC32COC2)n1` [Example 108, Spiro[oxetane-3,9′(4′H)-pyrimido[2,1-c][1,4]oxazine]-2′-carboxamide, N-[[4-fluoro-2-(3-methyl-1H-1,2,4-triazol-1-yl)phenyl]methyl]-6′,7′-dihydro-3′-hydroxy-4′-oxo-] belongs 1 to 10 nM; to `CN1CCn2c(nc(C(=O)NCc3ccc(F)cc3-n3cncn3)c(O)c2=O)C12CCC2` [Example 99, Spiro[cyclobutane-1,9′(6′H)-[4H]pyrazino[1,2-a]pyrimidine]-2′-carboxamide, N-[[4-fluoro-2-(1H-1,2,4-triazol-1-yl)phenyl]methyl]-7′,8′-dihydro-3′-hydroxy-8′-methyl-4′-oxo-], 1 to 10 nM.
Same read-out and setting: to `O=C(NCc1ccc(F)cc1-n1ccnn1)c1nc2n(c(=O)c1O)CCOC21CCOCC1` [Example 112, Spiro[4H-pyran-4,9′(4′H)-pyrimido[2,1-c][1,4]oxazine]-2′-carboxamide, N-[[4-fluoro-2-(1H-1,2,3-triazol-1-yl)phenyl]methyl]-2,3,5,6,6′,7′-hexahydro-3′-hydroxy-4′-oxo-] belongs 1 to 10 nM; to `CN1CCn2c(nc(C(=O)NCc3ccc(F)cc3)c(O)c2=O)C12CCC2` [Example 98, Spiro[cyclobutane-1,9′(6′H)-[4H]pyrazino[1,2-a]pyrimidine]-2′-carboxamide, N-[(4-fluorophenyl)methyl]-7′,8′-dihydro-3′-hydroxy-8′-methyl-4′-oxo-], 1 to 10 nM; to `O=C(NCc1ccc(F)cc1-n1ccnn1)c1nc2n(c(=O)c1O)CCOC21CCC1` [Example 101, Spiro[cyclobutane-1,9′(4′H)-pyrimido[2,1-c][1,4]oxazine]-2′-carboxamide, N-[[4-fluoro-2-(1H-1,2,3-triazol-1-yl)phenyl]methyl]-6′,7′-dihydro-3′-hydroxy-4′-oxo-], 1 to 10 nM.
On the same count and under the same terms, to `Cc1ncn(-c2cc(F)ccc2CNC(=O)c2nc3n(c(=O)c2O)CCOC32CCCC2)n1` [Example 129, Spiro[cyclopentane-1,9′(4′H)-pyrimido[2,1-c][1,4]oxazine]-2′-carboxamide, N-[[4-fluoro-2-(3-methyl-1H-1,2,4-triazol-1-yl)phenyl]methyl]-6′,7′-dihydro-3′-hydroxy-4′-oxo-] belongs 1 to 10 nM; to `Cc1nc(C)n(-c2cc(F)ccc2CNC(=O)c2nc3n(c(=O)c2O)CCCOC32CCC2)n1` [Example 128, Spiro[cyclobutane-1,10′(4′H)-[6H]pyrimido[2,1-c][1,4]oxazepine]-2′-carboxamide, N-[[2-(3,5-dimethyl-1H-1,2,4-triazol-1-yl)-4-fluorophenyl]methyl]-7′,8′-dihydro-3′-hydroxy-4′-oxo-], 10 to 100 nM; to `Cc1ncn(-c2cc(F)ccc2CNC(=O)c2nc3n(c(=O)c2O)CCOC32CCC2)n1` [Example 124, Spiro[cyclobutane-1,9′(4′H)-pyrimido[2,1-c][1,4]oxazine]-2′-carboxamide, N-[[4-fluoro-2-(3-methyl-1H-1,2,4-triazol-1-yl)phenyl]methyl]-6′,7′-dihydro-3′-hydroxy-4′-oxo-], 1 to 10 nM.
Consider `O=C(NCc1ccc(F)cc1-n1ccnn1)c1nc2n(c(=O)c1O)CCOC21CCCC1` [Example 113, Spiro[cyclopentane-1,9′(4′H)-pyrimido[2,1-c][1,4]oxazine]-2′-carboxamide, N-[[4-fluoro-2-(1H-1,2,3-triazol-1-yl)phenyl]methyl]-6′,7′-dihydro-3′-hydroxy-4′-oxo-], for which the IC50 is 1 to 10 nM.

(Values after patent publication US7419969B2 (Bristol-Myers Squibb Company, priority 2004, dated 2008).)
